Data set [1] can be described thus: Bisphenol A or curcumin loading into p(CD) particles (adsorption). It is filed as physicochemical. Particulars: for absorbed BPA: guest BPA; for absorbed CUR: guest CUR. Here is the method: Then, BPA-loaded CD-based particles were washed with ethanol-water (1:1) mixture one time by centrifugation at 10 000 rpm for 10 min. The BPA loaded CD-based particles were dried by freeze dryer for 48 h. Similarly, curcumin (CUR) was loaded into p(α-CD), p(β-CD), and p(γ-CD) particles by using the same procedure as described above. […] The CUR-loaded p(CD) materials were dried by freeze dryer for 48 h. The absorbance value of the BPA/CUR solutions before and after the loading processes were measured by using UV-Vis spectroscopy (SP-UV300SRB, Spectrum, China) at 275 nm and 425 nm for BPA and CUR, respectively against the previously constructed corresponding calibration curves for BPA and CUR prepared in ethanol-water mixtures. The ethanol-water solution was prepared at 1:7 and 3:2 volume ratios for BPA and CUR, respectively.

Another data set concerns L929 fibroblasts. The experiment in a line: Cytotoxicity (MTT cell viability) on L929 fibroblasts. In kind it is cell-based. Particulars: 1.0 mg/mL, 24 h incubation. Here is the method: For the biocompatibility analysis, L929 fibroblasts were cultured in an air-humidified incubator (5% CO2 atmosphere) in DMEM supplemented with 10% fetal bovine serum (FBS) at up to 70% cell confluency. The cytotoxicity analysis of CD-based materials was performed by MTT assay which determines the metabolic activity of living cells.
The L929 fibroblast cell suspension was adjusted to a density of 5×10^5 cells mL^−1 and gently homogenized. Then, 100 µL of this cell suspension was seeded onto wells on a 96-well plate. The well-plate was incubated at 37° C. under 5% CO2 in an air-humidified incubator for 24 h. After adherence of the fibroblasts, the culture medium was removed from the wells and 100 μL of CD-based particle suspension in culture medium DMEM at different concentrations between 50 and 1000 μg/mL was added to the cells. The plate was incubated at 37° C. under 5% CO2 in an air-humidified incubator for 24 h more. At the end of the incubation, the medium was removed from the wells, the cells were washed with phosphate-buffered saline solution (PBS) two times. After this step, 100 μL of MTT (Tetrazolium dye) at 0.5 mg/mL concentration was added to each well. The plate was incubated at room temperature in the dark for 4 h. Then, MTT solution was removed from the wells and 200 μL of DMSO was placed into the wells to dissolve the blue formazan crystals. Finally, the absorbance values were measured at 590 nm with a plate reader (Thermo Scientific™ Multiskan™). The absorbance value of control group was accepted as 100% viability and the decrease in cell viability % was estimated based on the absorbance values of the wells treated with CD-based materials by the following equation, Cell viability
Where Amaterial is the absorbance value of the cells interacting with CD-based materials and Acontrol is the absorbance value of the untreated cells as control. All assays were carried out in triplicate and the results are given with standard deviations.

A further data set has as its system Human blood. The data set can be described thus: Blood clotting assay. The settings on record: 1 mg/mL. How it is done:
Hemolysis and blood clotting assays were performed to investigate the blood compatibility of linear α-CD, β-CD, and γ-CD and their particle forms. Human blood was obtained from healthy volunteers and approved by the Clinical Research Ethics Committee of Canakkale Onsekiz Mart University (2011-KAEK-27/2022-2200063689) and placed into tubes containing EDTA. Before the analysis, all solutions were preheated to 37° C.
For the blood clotting assay, 64 μL of 0.2 M CaCl2 aqueous solution was mixed with 810 μL of blood containing EDTA and immediately 270 μL of this blood was covered with 10 mg of linear CD or CD particle. After 10 min, 10 mL of DI water was slowly added into the tubes and centrifuged at 100 g for 1 minute. Then 10 mL of supernatant solution containing non-clotting blood was taken from the tube and diluted with 40 mL of DI water. In the separation tube, 250 μL of the blood containing EDTA was dispersed in 50 mL of DI water as a control. The blood solution was incubated at 37.5° C. in a water bath for 1 h and then, the absorbance value of the supernatant was measured at 542 nm by using UV-Vis spectroscopy. The blood clotting index of the linear CD or CD particles was evaluated from the following equation.
Where Amaterial is the absorbance value of the blood solution interacted with the CD-based materials and Acontol is the absorbance value of the blood solution without the CD-based materials as a control. All assays were carried out in triplicate and the results are given with standard deviations.

Regarding `OCC1OC2OC3C(CO)OC(OC4C(CO)OC(OC5C(CO)OC(OC6C(CO)OC(OC7C(CO)OC(OC8C(CO)OC(OC9C(CO)OC(OC1C(O)C2O)C(O)C9O)C(O)C8O)C(O)C7O)C(O)C6O)C(O)C5O)C(O)C4O)C(O)C3O` (stereo not drawn) [γ-CD, γ-cyclodextrin], in data set [1], the “absorbed BPA” value is listed as 0.222 mmol/mmol and the “absorbed CUR” value is reported as 0.416 mmol/mmol. Also, the cell viability in the data set on L929 fibroblasts is given as 95±14%. The compound further showed a blood clotting index with Human blood of 98.4±0.7%.
Turning to `OCC1OC2OC3C(CO)OC(OC4C(CO)OC(OC5C(CO)OC(OC6C(CO)OC(OC7C(CO)OC(OC1C(O)C2O)C(O)C7O)C(O)C6O)C(O)C5O)C(O)C4O)C(O)C3O` (stereo not drawn) [α-CD, α-cyclodextrin], in data set [1], the “absorbed BPA” value amounted to 0.158 mmol/mmol and the “absorbed CUR” value is listed as 0.482 mmol/mmol. Moreover, the cell viability in the data set with L929 fibroblasts came to 90±7%. The compound further returned a blood clotting index in the data set with Human blood of 93.6±2.2%.
Regarding `OCC1OC2OC3C(CO)OC(OC4C(CO)OC(OC5C(CO)OC(OC6C(CO)OC(OC7C(CO)OC(OC8C(CO)OC(OC1C(O)C2O)C(O)C8O)C(O)C7O)C(O)C6O)C(O)C5O)C(O)C4O)C(O)C3O` (stereo not drawn) [β-CD, β-cyclodextrin], in data set [1], the “absorbed BPA” value is reported as 0.279 mmol/mmol and the “absorbed CUR” value worked out at 0.398 mmol/mmol. Moreover, the cell viability in the data set with L929 fibroblasts is on record as 89±14%. In addition, the blood clotting index in the data set on Human blood is reported as 92.3±2.3%.

Broadly, the cell viability is a per cent measure of how many cells are alive, often set against a control. High values mean better survival, low ones a greater loss of cells.

The values above are taken from patent publication US20260166175A1, “FABRICATION OF CYCLODEXTRIN PARTICLES AND CRYOGELS AND METHODS OF USING AND MAKING THEREOF” (University of South Florida, priority 2022, published 2026).
